Assay results from EPA's ToxValDB 9.5.

Key:
[1] = system: Rattus norvegicus; conditions: oral
[2] = system: Mus musculus; conditions: oral
[3] = short-term, duration: 1 weeks, diet, M, Wistar, Body Weight: ~32% weight loss
[4] = short-term, duration: 28 days, F, Sprague-Dawley, Body Weight: Decreased body weight gain (21%)
[5] = short-term, duration: 28 days, F, Sprague-Dawley, Hematological: Decreased MCH and MCHC + Immunotoxicological: Decreased phagocytosis by fixed tissue macrophages in the liver
[6] = short-term, duration: 28 days, F, Sprague-Dawley, Hepatic: Single cell necrosis
[7] = acute, duration: 1 days, gavage, F, Body Weight: 12% decreased body weight 30 days post-exposure + Endocrine: 2-fold increase in T3 and 4-fold increase in T4 levels 30 days …
[8] = developmental, duration: 10 days, gavage, F, Body Weight: No weight gain at 6.4 mg/kg/day and weight loss at 12.8 mg/kg/day (net change of -2.4)
[9] = developmental, duration: 10 days, gavage, F, Developmental: 18-22% decreases in fetal weight per litter at ?1 mg/kg/day / decreases in live fetuses per litter at 12.8 mg/kg/day (4.6 …
[10] = short-term, duration: 4 weeks, F, B6C3F1, Immunotoxicological: Decreases in splenic T-cells, T-cell subsets, and macrophages

SMILES: O=C(O)C(F)(F)C(F)(F)C(F)(F)C(F)(F)C(F)(F)C(F)(F)C(F)(F)C(F)(F)C(F)(F)F [Perfluorodecanoic acid]
- LOAEL ([1]; acute, duration: 1 days, gavage, M, Wistar, Body Weight: 8% weight loss was observed 10-days post-exposure): 50 mg/kg-day
- NOAEL ([1]; acute, duration: 1 days, gavage, M, Wistar, Neurological: No alteration in performance on novel object recognition test): 50 mg/kg-day
- LOAEL [1, 3]: 9.5 mg/kg-day
- NOAEL [1, 3]: 4.7 mg/kg-day
- NOAEL ([1]; short-term, duration: 1 weeks, diet, M, Wistar, Hepatic: Increases in liver weight at ?2.4 mg/kg/day / increases in hepatic cholesterol at 9.5 mg/kg/day): 9.5 mg/kg-day
- LOAEL [1, 4]: 1 mg/kg-day
- NOAEL [1, 4]: 0.5 mg/kg-day
- LOAEL [1, 5]: 0.25 mg/kg-day
- NOAEL [1, 5]: 0.125 mg/kg-day
- LOAEL [1, 6]: 0.5 mg/kg-day
- NOAEL [1, 6]: 0.25 mg/kg-day
- LOAEL [2, 7]: 80 mg/kg-day
- NOAEL [2, 7]: 40 mg/kg-day
- NOAEL ([2]; acute, duration: 1 days, gavage, F, Cardiovascular: No histological alterations in the heart 30 days post-exposure / decreased relative heart weight at 80 mg/kg/day + Hepatic…): 80 mg/kg-day
- LOAEL ([2]; acute, duration: 1 days, gavage, F, Death: LD50 in 30-day observation period): 120 mg/kg-day
- NOAEL ([2]; acute, duration: 1 days, gavage, F, Hepatic: Increase in hepatic lipids and liver weight 2 days post-exposure at 40 mg/kg/day): 160 mg/kg-day
- LOAEL ([2]; acute, duration: 1 days, gavage, F, Immunotoxicological: 28% decrease in relative spleen weight at 80 mg/kg/day / atrophy and lymphoid depletion in thymus and spleen at 160 mg…): 160 mg/kg-day
- NOAEL ([2]; developmental, duration: 1 days, gavage, M, CD1, Developmental: No alteration in spontaneous activity or habituation at 2-4 months of age): 10.8 mg/kg-day
- LOAEL [2, 8]: 6.4 mg/kg-day
- NOAEL [2, 8]: 3 mg/kg-day
- LOAEL ([2]; developmental, duration: 10 days, gavage, F, Body Weight: No weight gain at 6.4 mg/kg/day and weight loss at 12.8 mg/kg/day (net change of -2.4) + Developmental: 18-22% decreases in …): 12.8 mg/kg-day
- LOAEL [2, 9]: 1 mg/kg-day
- NOAEL [2, 9]: 0.3 mg/kg-day
- NOAEL ([2]; short-term, duration: 4 weeks, F, B6C3F1): 5 mg/kg-day
- LOAEL [2, 10]: 1.25 mg/kg-day
- NOAEL [2, 10]: 0.625 mg/kg-day
- LOAEL ([2]; short-term, duration: 10 days, diet, M, Body Weight: 33% weight loss): 78 mg/kg-day
- NOAEL ([2]; short-term, duration: 10 days, diet, M, Hepatic: 36% increase in liver weight): 78 mg/kg-day
